{"source": "patent US20210270855A1", "about": "“PIP2 AS A MARKER FOR HDL FUNCTION AND CARDIOVASCULAR DISEASE RISK” (The Cleveland Clinic Foundation, priority 2016, published 2021)", "key": {"[1]": {"tested_on": "ABCA1 induced RAW264.7 cells", "assay": "Cholesterol efflux to apoA1 from ABCA1-induced RAW264.7 cells", "assay_type": "cell-based, mouse", "conditions": "for ABCA1-dependent cholesterol efflux to apoA1: RAW264.7, 1 μM inhibitor, apoA1 chase", "method": "(§1) Cell growth and ABCA1 induction: All cell culture incubations were performed at 37° C. in humidified 5% CO2 incubator. The growth media was Dulbecco's Modified Eagle Medium (DMEM) with 10% fetal calf serum, 100 μg/mL penicillin, 100 μg/mL […]. ABCA1 was induced in […] cells by 16-24 hr incubation with 0.3 mM 8Br-cAMP^34. ABCA1 was induced in BHK cells by 16-24 hr incubation with 10 nM mifepristone^31. Inducers were included in the media during subsequent assays. ABCA1 expression was confirmed by western blot using the AC10 antibody (Santa Cruz Biotech).\nCholesterol efflux assay: On day 1, cells were plated on 24-well plates at a density of 20,000 to 400,000 cells per well. On day 2, the cells were labeled with […] [^3H]cholesterol in DMEM containing 1% FBS. On day 3, the cells when indicated were treated with or without ABCA1 inducers in serum-free DMEM. On day 4 (or day 3 for HEK293 cells and ABCA1 stably transfected cells) the cells were washed and chased for 4-6 hr in serum-free DMEM in the presence or absence of 5 μg/ml apoA1. The radioactivity in the chase media was determined after brief centrifugation to pellet any residual debris. Radioactivity in the cells was determined by extraction in hexane:isopropanol (3:2) with the solvent evaporated in a scintillation vial prior to counting. The percent cholesterol efflux was calculated as 100×(medium dpm)/(medium dpm+cell dpm).\nTmem55b knockdown: The siRNA to mouse Tmem55b (Origene, #SR408149) and scrambled control were transfected in RAW264.7 cells using siTran 1.0 (Origene). The cellular protein extracts were prepared using NP-40 lysis buffer containing protease inhibitors. The knockdown efficacy was determined by western blot using anti Tmem55b antibody (Santa Cruz)."}, "immobilized apoA1": {"target": "T1, immobilized apoA1 (Homo sapiens, UniProt P02647)", "T1 construct": "ApoA1 was purified form human plasma^29, and dialyzed against PBS; from tissue; host or cells: human plasma", "T1 sequence (P02647 25-267 limits assumed)": "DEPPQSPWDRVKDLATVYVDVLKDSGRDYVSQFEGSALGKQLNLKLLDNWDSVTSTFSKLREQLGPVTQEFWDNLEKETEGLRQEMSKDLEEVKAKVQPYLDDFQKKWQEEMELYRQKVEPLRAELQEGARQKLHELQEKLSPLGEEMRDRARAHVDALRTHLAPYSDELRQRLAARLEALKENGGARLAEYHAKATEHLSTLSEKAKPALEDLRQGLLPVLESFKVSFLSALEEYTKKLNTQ", "assay": "Surface plasmon resonance, lipid binding to immobilized apoA1", "conditions": "biotinylated apoA1 on sensor chip; PC at 1 μM", "method": "(§2) Surface Plasmon resonance: Binding kinetic of PIP2 with different apolipoproteins was analyzed using a Biacore3000 instrument. Either biotinylated apoA1 or biotinylated PIP2 was immobilized on a streptavidin (SA) sensor chip (GE Healthcare). The immobilized apoA1 or PIP2 was stable over the course of the experiment and baseline drift was <10 response units (RU)/h after the washing with Hepes buffered saline (FIBS) buffer. Different concentrations of apoA1 or PIP2 were injected using the KINJECT procedure at flow-rate of 10 μl/min and dissociation was monitored by injecting FIBS buffer. The injections were performed in triplicate for each ligand concentration. For comparing binding kinetics of PIP2 with apoA1, apoA2 and apoE, these proteins were immobilized by covalent coupling on a CMS sensor chip (GE Healthcare) using EDC-NHS reagents. PIP2 was injected as described above. Corrected response data were fitted with BIAevaluation software version 4.01, and Kd values were calculated."}, "apoA1": {"target": "apoA1 (Homo sapiens, UniProt P02647)", "sequence (P02647 25-267 limits assumed)": "as above", "assay": "Fluorescence anisotropy, apoA1 binding to bodipy-labeled PIP2", "conditions": "summary statement in the detailed description; read-out: dissociation constant of apoA1 binding to PIP2"}, "apoA2": {"target": "T2, apoA2 (Homo sapiens, UniProt P02652)", "T2 construct": "purchased Origene TP721104", "T2 sequence (P02652 19-100)": "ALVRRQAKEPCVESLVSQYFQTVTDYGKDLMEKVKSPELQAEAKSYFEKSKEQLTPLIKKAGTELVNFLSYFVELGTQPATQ", "assay": "Surface plasmon resonance, PIP2 binding to immobilized apoA2", "method": "as §2"}, "[2]": {"tested_on": "ABCA1 expressing RAW264.7 cells", "assay": "ApoA1 cell binding by flow cytometry, RAW264.7 cells", "assay_type": "cell-based, mouse", "conditions": "ABCA1-induced RAW264.7, apoA1 pre-incubated with PIP2 (5:1 mole ratio)", "method": "as §1\nCell surface PS, PIP2, and apoA1 binding assays via flow cytometry: Cell surface PS levels were determined by flow cytometry after cell scraping in PBS, re-suspension in Annexin V binding buffer, and incubation with AnnexinV-Cy5 (Biovision) at room temperature for 5 minutes in the dark. Cell surface PIP2 levels were determined by flow cytometry by incubation with Alexa647 or FITC labeled anti-PIP2 antibody (Echelon) in phenol red-free, serum-free, DMEM at room temperature for 30 min. Human apoA1 was labeled with Alexa647 (Molecular Probes) on free amines using a 6:1 mole ratio of dye:apoA1. Alexa647-apoA1 binding was determined by flow cytometry after incubation with cells for 45 minutes at room temperature. […] Data was analyzed by Flowjo software and the median relative fluorescent intensities were compared."}, "apoE": {"target": "T3, apoE (Homo sapiens, UniProt P02649)", "T3 construct": "purchased Origene TP723016", "T3 sequence (P02649 19-317)": "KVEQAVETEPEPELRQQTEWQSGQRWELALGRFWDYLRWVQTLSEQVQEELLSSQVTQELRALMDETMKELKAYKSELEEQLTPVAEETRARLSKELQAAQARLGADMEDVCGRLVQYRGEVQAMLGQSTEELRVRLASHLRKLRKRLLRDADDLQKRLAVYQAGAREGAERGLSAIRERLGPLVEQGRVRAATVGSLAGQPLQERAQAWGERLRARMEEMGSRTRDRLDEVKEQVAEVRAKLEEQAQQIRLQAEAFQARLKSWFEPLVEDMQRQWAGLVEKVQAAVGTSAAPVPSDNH", "assay": "Surface plasmon resonance, PIP2 binding to immobilized apoE", "method": "as §2"}}}
{"molecule": "CC(=O)Nc1nc(C)c(-c2ccc(Cl)c(S(=O)(=O)NCCO)c2)s1", "note": "[PIK-93]", "values": [{"measurement": "ABCA1-dependent cholesterol efflux to apoA1", "setting": "[1]", "value": "decreased"}]}
{"molecule": "CC(C)(C)C(=O)Nc1ccc2c(c1)C(=O)C(=O)c1ccccc1-2", "note": "[SF1670]", "values": [{"measurement": "ABCA1-dependent cholesterol efflux to apoA1", "setting": "[1]", "value": "decreased"}]}
{"molecule": "phosphatidylcholine [PC]", "values": [{"measurement": "binding to immobilized apoA1 (SPR)", "setting": "immobilized apoA1", "value": "no binding"}]}
{"molecule": "CCCCC/C=C\\C/C=C\\C/C=C\\C/C=C\\CCCC(=O)O[C@H](COC(=O)CCCCCCCCCCCCCCCCC)COP(=O)(O)O[C@@H]1[C@H](O)[C@H](O)[C@@H](OP(=O)(O)O)[C@H](OP(=O)(O)O)[C@H]1O", "note": "[PIP2, phosphatidylinositol (4,5) bis-phosphate]", "values": [{"measurement": "Kd", "setting": "apoA1", "value": "~100", "unit": "nM"}, {"measurement": "cholesterol efflux to apoA1", "setting": "[1]; ABCA1-induced RAW264.7, apoA1 5 μg/ml pre-incubated with PIP2 (PIP2:apoA1 5:1 mole ratio)", "value": "decreased"}, {"measurement": "direct binding to apoA2 (SPR)", "setting": "apoA2", "value": "direct binding"}, {"measurement": "apoA1 binding", "setting": "[2]", "value": "decreased"}, {"measurement": "direct binding to apoE (SPR)", "setting": "apoE", "value": "direct binding"}, {"measurement": "binding to immobilized apoA1 (SPR)", "setting": "immobilized apoA1", "value": "direct binding"}]}
